Earlier results in patent publication US9238023B2, “Methods for improving health in humans” (Quality IP Holdings, LLC, priority 2012, dated 2016).

What was measured:
hGH = settings: for effect on hGH: other amino acids, literature
GH = settings: subcutaneous injection of 0.06 IU, GH deficient subjects

Compound | effect on hGH (hGH) | further results
N=C(N)NCCC[C@H](N)C(=O)O [arginine] |  | elevation of serum hGH levels (hGH; 30 g, males): 8.6 fold; increase of hGH levels (hGH; intravenous infusion 183 mg/kg body weight, females): > 20 fold
HGH: human growth hormone, subcutaneous injection in the treatment of GH deficient subjects |  | mean levels of GH reached (GH): 0.4 ng/mL
NCCCC[C@H](N)C(=O)O [lysine] | marked increases in hGH | 
CSCC[C@H](N)C(=O)O [methionine] | marked increases in hGH | 
NCCC[C@H](N)C(=O)O [ornithine] | marked increases in hGH | 
N[C@@H](Cc1ccccc1)C(=O)O [phenylalanine] | marked increases in hGH | 
N[C@@H](Cc1c[nH]cn1)C(=O)O [histidine] | marked increases in hGH | 
